Source: patent US20160242450A1, “Functional-gel Compositions and Methods” (priority 2014, published 2016)

Assay: Energy intake and weight loss rodent study, preloads before high fat diet (Experiment 2)
Assay type: in vivo
Details: mice on high fat diet, daily preload one hour before diet
Text: Fifteen adult female feeder mice were preconditioned for 15 days on a […]. PicoLab Rodent diet 20 was supplemented to […] by adding a mixture of fats consisting of (38% butter, 30% shortening, 23% lard, and 8% canola oil). High fat diet was provided ad libitum. After the pre-conditioning period mice were assigned to one of four groups ([…]) to generate similar mean body weights between groups as described below. Mice were given control or test article preloads one hour prior to receiving ad libitum high fat diet on a daily basis, mice received high fat diet at ad libitum over night (rodent active period of the day) and were fasted during day time hours (the rodent dormant period of the day). Body weights were obtained on Day 15 and Day 30 post treatment initiation and data was used to calculate change in body weight from baseline, Day 0. Mean body weights (FIG. 1) and % change in body weight (FIG. 2) data is provided with corresponding SEM. Partially hydrolyzed collagen (GEL group) test article was hydrated in 10× in hot water then allowed to set to firm gel 4-8° C. overnight. Wheat Flour (FLOU group) and Psyllium (PSY group) test articles were hydrated in water. Wheat Flour was cooked via microwave for 2 min at an 800 Watt setting.

For `CCCCCCCCCCC[C@@H](C[C@@H]1OC(=O)[C@H]1CCCCCC)OC(=O)[C@H](CC(C)C)NC=O` [ALLI, Orlistat], the “Body weight change over a 30 day treatment period (FIG. 1, FIG. 2)” value was “weight loss”.
